The target in assay [1] is T1, Thyroid hormone receptor alpha (Homo sapiens, UniProt P10827).
T1 sequence (P10827 whole entry): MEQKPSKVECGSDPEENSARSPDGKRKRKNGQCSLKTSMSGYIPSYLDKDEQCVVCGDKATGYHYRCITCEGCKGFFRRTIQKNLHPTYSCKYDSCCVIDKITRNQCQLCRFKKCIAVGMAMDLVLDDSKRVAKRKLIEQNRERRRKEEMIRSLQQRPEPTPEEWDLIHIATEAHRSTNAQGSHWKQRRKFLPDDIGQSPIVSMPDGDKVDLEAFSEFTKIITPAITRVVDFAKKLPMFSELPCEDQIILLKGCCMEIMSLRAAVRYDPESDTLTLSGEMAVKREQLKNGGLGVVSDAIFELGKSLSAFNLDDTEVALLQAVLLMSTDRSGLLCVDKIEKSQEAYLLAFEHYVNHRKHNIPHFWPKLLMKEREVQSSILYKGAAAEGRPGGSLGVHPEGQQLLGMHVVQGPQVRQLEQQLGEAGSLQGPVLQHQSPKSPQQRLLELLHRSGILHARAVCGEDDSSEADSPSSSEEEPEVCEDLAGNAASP
As to the kind of experiment: TR Receptor Ligand Binding Assay. The text has this: (§1) Human thyroid hormone receptor alpha and beta (hTR alpha1) and (hTR beta1) were produced using TNT coupled reticulocyte lysate system from Promega.

For assay [2], the target named is T2, Thyroid hormone receptor beta (Homo sapiens, UniProt P10828).
T2 sequence (P10828 whole entry): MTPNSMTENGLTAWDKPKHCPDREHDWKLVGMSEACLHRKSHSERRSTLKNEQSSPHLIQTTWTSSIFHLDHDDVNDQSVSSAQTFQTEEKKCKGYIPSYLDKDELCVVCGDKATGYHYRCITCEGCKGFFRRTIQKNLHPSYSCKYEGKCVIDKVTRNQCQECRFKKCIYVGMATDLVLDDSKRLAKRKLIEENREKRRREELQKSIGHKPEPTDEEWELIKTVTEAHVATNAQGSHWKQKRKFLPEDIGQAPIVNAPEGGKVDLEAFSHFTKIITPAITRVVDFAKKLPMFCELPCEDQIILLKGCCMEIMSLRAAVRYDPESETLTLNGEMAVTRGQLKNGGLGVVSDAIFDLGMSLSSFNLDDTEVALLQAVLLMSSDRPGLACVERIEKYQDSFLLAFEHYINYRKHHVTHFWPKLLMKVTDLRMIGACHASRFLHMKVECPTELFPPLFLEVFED
As to the kind of experiment: TR Receptor Ligand Binding Assay.
Excerpt: as §1

`Cc1cc(C[C@H](N)C(=O)O)cc(C)c1Oc1ccc(O)c(C(C)C)c1` [Dimethyl-isopropyl-T3 (DIMIT)]: the Kd was 9.7 nM in assay [1] and 9.8 nM in assay [2].

For orientation: Kd means the free concentration of one partner at which half of the binding sites on the other are occupied at equilibrium, for simple one-to-one binding. Lower therefore signals higher affinity.

Values taken from BindingDB's records for doi:10.1016/s1074-5521(98)90168-5 (University of California San Francisco, 1998).
